Measured values as given in patent US11472795B2, “1H-indazole-3-carboxamide compounds as glycogen synthase kinase 3 beta inhibitors” (AZIENDE CHIMICHE RIUNITE ANGELINI FRANCESCO—A.C.R.A.F. …, priority 2018, dated 2022).

Tests used:
[1] = target: human GSK-3β (Homo sapiens (Human), UniProt P49841); test: Test I - Activity on human GSK-3β (LANCE substrate phosphorylation); format: biochemical; details: human recombinant GSK-3β, 90 minutes at 22° C., five concentrations 10 μM to 1 nM, duplicate; read-out: GSK-33 IC50
Procedure: Human recombinant enzyme GSK-3β was incubated for 90 minutes at 22° C. in the presence of compounds or vehicle in a reaction buffer containing ATP plus 100 nM unphosphorylated specific substrate peptide (Ulight-[…]-amide). Substrate phosphorylation was measured by LANCE technology (PerkinElmer, CT, USA).

[2] = target: hERG ion channel (Homo sapiens (Human), UniProt Q12809)
Procedure: (2006), Expert Opin. Ther. Targets, 10 (2): 230-241 using the recombinant human cell line CHO-K1, which stably expresses the hERG ion channel.
The degree of inhibition (%) was obtained by measuring the tail current amplitude, which is induced by a one second test pulse to −40 mV after a two second pulse to +20 mV, before and after drug incubation (the difference current was normalized to control and multiplied by 100 to obtain the percent of inhibition). […] The concentration response relationship of each compound was constructed from the percentage reductions of current amplitude by sequential concentrations.

Chain of hERG ion channel (Q12809 whole entry): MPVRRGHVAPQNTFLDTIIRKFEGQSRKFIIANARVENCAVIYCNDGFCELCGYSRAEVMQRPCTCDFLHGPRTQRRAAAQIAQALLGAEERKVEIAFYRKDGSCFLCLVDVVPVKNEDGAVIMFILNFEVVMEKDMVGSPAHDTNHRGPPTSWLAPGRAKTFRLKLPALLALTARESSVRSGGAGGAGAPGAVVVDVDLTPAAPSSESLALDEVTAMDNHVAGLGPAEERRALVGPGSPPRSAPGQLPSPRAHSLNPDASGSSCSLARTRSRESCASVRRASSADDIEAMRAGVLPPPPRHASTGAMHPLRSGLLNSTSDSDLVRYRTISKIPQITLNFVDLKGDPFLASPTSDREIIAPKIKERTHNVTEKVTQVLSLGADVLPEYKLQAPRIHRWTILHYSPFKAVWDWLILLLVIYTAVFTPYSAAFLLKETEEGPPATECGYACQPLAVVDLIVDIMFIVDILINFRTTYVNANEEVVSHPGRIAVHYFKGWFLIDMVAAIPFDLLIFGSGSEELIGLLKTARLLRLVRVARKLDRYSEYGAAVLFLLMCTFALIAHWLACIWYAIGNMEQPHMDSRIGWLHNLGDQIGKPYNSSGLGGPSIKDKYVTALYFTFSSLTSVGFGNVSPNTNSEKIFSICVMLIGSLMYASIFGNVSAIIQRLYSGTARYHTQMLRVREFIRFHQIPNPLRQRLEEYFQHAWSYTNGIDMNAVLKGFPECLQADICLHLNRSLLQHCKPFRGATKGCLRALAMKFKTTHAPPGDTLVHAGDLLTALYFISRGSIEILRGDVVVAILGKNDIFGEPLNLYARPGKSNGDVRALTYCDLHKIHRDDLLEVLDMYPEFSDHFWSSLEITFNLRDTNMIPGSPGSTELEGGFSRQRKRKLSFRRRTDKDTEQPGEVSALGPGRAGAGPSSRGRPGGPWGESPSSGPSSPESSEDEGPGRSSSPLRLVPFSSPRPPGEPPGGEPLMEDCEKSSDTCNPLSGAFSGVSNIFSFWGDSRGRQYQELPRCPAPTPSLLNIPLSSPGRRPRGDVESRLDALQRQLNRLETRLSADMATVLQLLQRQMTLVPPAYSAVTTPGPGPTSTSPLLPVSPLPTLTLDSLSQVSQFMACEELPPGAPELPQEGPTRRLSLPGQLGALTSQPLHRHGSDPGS
Chain of human GSK-3β (P49841 whole entry): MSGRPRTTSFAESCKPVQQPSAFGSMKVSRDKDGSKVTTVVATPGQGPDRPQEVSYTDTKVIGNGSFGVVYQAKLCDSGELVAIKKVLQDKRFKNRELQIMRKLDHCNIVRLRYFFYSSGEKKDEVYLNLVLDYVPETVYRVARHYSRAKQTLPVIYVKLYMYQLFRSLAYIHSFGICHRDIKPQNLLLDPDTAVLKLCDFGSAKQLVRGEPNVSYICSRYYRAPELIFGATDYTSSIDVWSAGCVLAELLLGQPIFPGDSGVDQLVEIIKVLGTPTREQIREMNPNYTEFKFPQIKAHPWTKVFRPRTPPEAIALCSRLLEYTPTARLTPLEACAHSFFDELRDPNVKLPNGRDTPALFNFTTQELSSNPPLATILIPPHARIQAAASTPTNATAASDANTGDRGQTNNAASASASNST

Row | SMILES | IC50 [1] [nM] | IC50 [2] [nM] | hERG/GSK-3β Ratio [2]
1 | CN(C)Cc1ccncc1-c1ccc2[nH]nc(C(=O)NCC3CCOCC3)c2c1 [Compound 21, 5-(4-((Dimethylamino)methyl)pyridin-3-yl)-N-((tetrahydro-2H-pyran-4-yl)methyl)-1H-indazole-3-carboxamide] | 220 | 40000 | 182
2 | O=C(NC1CCS(=O)(=O)C1)c1n[nH]c2ccc(-c3cncc(CO)c3)cc12 (centres unmarked) [Compound 6, 5-(5-(Hydroxymethyl)pyridin-3-yl)-N-(1,1-dioxidotetrahydrothiophen-3-yl)-1H-indazole-3-carboxamide] | 17 | > 100000 | 
3 | COCc1cncc(-c2ccc3[nH]nc(C(=O)NCC4CCS(=O)(=O)C4)c3c2)c1 (centres unmarked) [Compound 5] | 16 | > 100000 | 
4 | O=C(NCC1CCOCC1)c1n[nH]c2ccc(-c3cnccc3CN3CCOCC3)cc12 [Compound 20, 5-(4-(Morpholinomethyl)pyridin-3-yl)-N-((tetrahydro-2H-pyran-4-yl)methyl)-1H-indazole-3-carboxamide carboxamide] | 18.5 | 46000 | 2,487
5 | O=C(NCC1CCOCC1)c1n[nH]c2ccc(-c3cnccc3CN3CCNCC3)cc12 [Compound 24, 5-(4-(piperazin-1-ylmethyl)pyridin-3-yl)-N-((tetrahydro-2H-pyran-4-yl)methyl)-1H-indazole-3-carboxamide] | 120 | 93800 | 782
6 | CC(C)Oc1cncc(-c2ccc3[nH]nc(C(=O)NCC4CCOC4)c3c2)c1 (centres unmarked) [Compound 4, 5-(5-Isopropoxypyridin-3-yl)-N-((tetrahydrofuran-3-yl)methyl)-1H-indazole-3-carboxamide] | 17 | 6200 | 365
7 | O=C(NCC1CCOCC1)c1n[nH]c2ccc(-c3cncc(CN4CCCC4)c3)cc12 [Compound 17, 5-(5-(Pyrrolidin-1-ylmethyl)pyridin-3-yl)-N-((tetrahydro-2H-pyran-4-yl)methyl)-1H-indazole-3-carboxamide] | 17 | 6700 | 394
8 | O=C(NCC1CCOCC1)c1n[nH]c2ccc(-c3cnccc3CN3CCCC3)cc12 [Compound 19, 5-(4-(Pyrrolidin-1-ylmethyl)pyridin-3-yl)-N-((tetrahydro-2H-pyran-4-yl)methyl)-1H-indazole-3-carboxamide] | 140 | 16000 | 114
9 | CC(C)Oc1cncc(-c2ccc3[nH]nc(C(=O)NCC4CCS(=O)(=O)C4)c3c2)c1 (centres unmarked) [Compound 11] | 12 | 5400 | 450
10 | O=C(NCC1CCOCC1)c1n[nH]c2ccc(-c3cncc(CN4CCOCC4)c3)cc12 [Compound 27, 5-(5-(morpholinomethyl)pyridin-3-yl)-N-((tetrahydro-2H-pyran-4-yl)methyl)-1H-indazole-3-carboxamide] | 13 | 3500 | 269
11 | CNCc1cncc(-c2ccc3[nH]nc(C(=O)NCC4CCOCC4)c3c2)c1 [Compound 28, 5-(5-((methylamino)methyl)pyridin-3-yl)-N-((tetrahydro-2H-pyran-4-yl)methyl)-1H-indazole-3-carboxamide] | 6 | > 100000 | 
12 | CN(C)Cc1cncc(-c2ccc3[nH]nc(C(=O)NCC4CCOCC4)c3c2)c1 [Compound 16, 5-(5-((Dimethylamino)methyl)pyridin-3-yl)-N-((tetrahydro-2H-pyran-4-yl)methyl)-1H-indazole-3-carboxamide] | 23 | 44000 | 1,913
13 | O=C(NCC1CCCCO1)c1n[nH]c2ccc(-c3cccc(F)c3F)cc12 (centres unmarked) [Compound 14, 5-(2,3-Difluorophenyl)-N-((tetrahydro-2H-pyran-2-yl)methyl)-1H-indazole-3-carboxamide] | 436 | > 100000 | 
